Residue numbers refer to the chain shown, from its start.
What was measured:
MlVip = MlVip (Methanofollis liminatans, UniProt J0S9F5); assay: ddhNTP product by LC-MS; type: biochemical; details: SAM, dithionite; labelled compound (deuCTP)
NvVip = NvVip (Nematostella vectensis, UniProt A7RNF3); assay: X-ray crystal structure; type: binding; details: 1.42 Å, [4Fe-4S], anaerobic, active site
RnVip [1] = target: T1, RnVip (Rattus norvegicus, UniProt O70600, H77A); assay: ddhCTP formation; type: biochemical; details: SAM, dithionite
T1 sequence (O70600 1-360 H77A): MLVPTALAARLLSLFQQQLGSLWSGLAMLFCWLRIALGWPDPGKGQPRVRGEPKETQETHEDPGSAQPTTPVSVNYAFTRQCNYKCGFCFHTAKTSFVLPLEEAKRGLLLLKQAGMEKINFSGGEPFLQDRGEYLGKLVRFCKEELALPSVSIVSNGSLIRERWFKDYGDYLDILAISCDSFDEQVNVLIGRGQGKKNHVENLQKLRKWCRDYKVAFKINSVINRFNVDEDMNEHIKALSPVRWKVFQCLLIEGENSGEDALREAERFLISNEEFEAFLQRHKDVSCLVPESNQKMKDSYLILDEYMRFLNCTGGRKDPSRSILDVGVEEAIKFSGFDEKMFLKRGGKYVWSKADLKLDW

RnVip [2] = target: T2, RnVip (Rattus norvegicus, UniProt O70600, K317A); assay: ddhCTP formation; type: biochemical; details: SAM, dithionite
T2 sequence (O70600 1-360 K317A): T1 sequence (O70600 1-360 H77A) with A77H, K317A

TvVip = TvVip (Trichoderma virens, UniProt G9MQB8); assay: X-ray crystal structure; type: binding; details: 3.2 Å; complex with SAM; active site

Nc1ccn([C@@H]2O[C@H](COP(=O)(O)OP(=O)(O)OP(=O)(O)O)[C@@H](O)[C@H]2O)c(=O)n1 [CTP]
ddhNTP product by LC-MS; deu5'-dA formation (MlVip): only deuCTP was converted to the respective ddhNTP product by MlVip
X-ray crystal structure (NvVip; complex with SAM): omit maps show strong density for CTP in the catalytic site
ddhCTP formation (RnVip [1]): We generated the RnVip variant H77A and the MmVip variant H79A
ddhCTP formation (RnVip [2]): we generated a lysine to alanine variant in RnVip (K317A

C[S+](CC[C@H](N)C(=O)O)C[C@H]1O[C@@H](n2cnc3c(N)ncnc32)[C@H](O)[C@@H]1O (stereo partly drawn) [SAM]
X-ray crystal structure (NvVip; complex with CTP): The asymmetric unit of NvVip contains one protein chain, a 4Fe-4S cluster, CTP, and SAM

O=c1ccn([C@@H]2O[C@H](COP(=O)(O)OP(=O)(O)OP(=O)(O)O)[C@@H](O)[C@H]2O)c(=O)[nH]1 [UTP]
X-ray crystal structure (TvVip): Crystals of TvVip bound to SAM and UTP exhibited diffraction

From publication PMC8672371 (Biochemistry, 2021)
